# Assay results from ChEMBL document CHEMBL4825753 (J Med Chem, 2021).
# Key:
# [1] = biological target: T1, Tyrosine-protein kinase receptor UFO (Homo sapiens, UniProt P30530); test: Inhibition of FLAG-tagged AXL (unknown origin) transfected in Cos-7 cells assessed as phosphorylation level incubated for 1 hr by ELISA; format: cell-based
# T1 sequence (P30530 whole entry): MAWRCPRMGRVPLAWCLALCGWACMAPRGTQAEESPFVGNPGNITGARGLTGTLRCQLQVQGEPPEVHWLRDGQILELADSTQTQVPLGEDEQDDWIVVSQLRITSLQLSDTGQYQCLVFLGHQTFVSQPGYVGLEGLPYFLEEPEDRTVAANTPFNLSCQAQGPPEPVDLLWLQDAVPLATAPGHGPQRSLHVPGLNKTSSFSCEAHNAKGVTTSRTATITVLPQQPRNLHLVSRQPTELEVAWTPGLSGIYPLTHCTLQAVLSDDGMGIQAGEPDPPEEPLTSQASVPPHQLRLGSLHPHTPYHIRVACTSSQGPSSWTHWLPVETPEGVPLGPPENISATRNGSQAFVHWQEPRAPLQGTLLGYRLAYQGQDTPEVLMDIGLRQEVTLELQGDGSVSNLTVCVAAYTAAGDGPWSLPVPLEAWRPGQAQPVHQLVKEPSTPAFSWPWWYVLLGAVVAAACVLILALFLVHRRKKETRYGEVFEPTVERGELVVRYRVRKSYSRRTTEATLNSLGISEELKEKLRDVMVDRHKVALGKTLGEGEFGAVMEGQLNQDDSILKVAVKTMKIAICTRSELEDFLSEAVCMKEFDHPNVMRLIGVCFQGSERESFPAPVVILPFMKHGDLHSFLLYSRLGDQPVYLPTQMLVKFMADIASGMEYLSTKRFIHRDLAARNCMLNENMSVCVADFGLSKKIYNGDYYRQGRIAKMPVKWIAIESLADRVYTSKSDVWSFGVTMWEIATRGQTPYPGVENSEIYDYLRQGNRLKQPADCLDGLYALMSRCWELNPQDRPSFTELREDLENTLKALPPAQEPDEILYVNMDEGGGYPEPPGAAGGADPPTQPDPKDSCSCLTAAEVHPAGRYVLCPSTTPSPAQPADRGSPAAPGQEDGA
# [2] = biological target: T2, Receptor-type tyrosine-protein kinase FLT3 (Homo sapiens, UniProt P36888); test: Inhibition of FLAG-tagged FLT3 (unknown origin) transfected in Cos-7 cells assessed as phosphorylation level incubated for 1 hr by ELISA; format: cell-based
# T2 sequence (P36888 whole entry): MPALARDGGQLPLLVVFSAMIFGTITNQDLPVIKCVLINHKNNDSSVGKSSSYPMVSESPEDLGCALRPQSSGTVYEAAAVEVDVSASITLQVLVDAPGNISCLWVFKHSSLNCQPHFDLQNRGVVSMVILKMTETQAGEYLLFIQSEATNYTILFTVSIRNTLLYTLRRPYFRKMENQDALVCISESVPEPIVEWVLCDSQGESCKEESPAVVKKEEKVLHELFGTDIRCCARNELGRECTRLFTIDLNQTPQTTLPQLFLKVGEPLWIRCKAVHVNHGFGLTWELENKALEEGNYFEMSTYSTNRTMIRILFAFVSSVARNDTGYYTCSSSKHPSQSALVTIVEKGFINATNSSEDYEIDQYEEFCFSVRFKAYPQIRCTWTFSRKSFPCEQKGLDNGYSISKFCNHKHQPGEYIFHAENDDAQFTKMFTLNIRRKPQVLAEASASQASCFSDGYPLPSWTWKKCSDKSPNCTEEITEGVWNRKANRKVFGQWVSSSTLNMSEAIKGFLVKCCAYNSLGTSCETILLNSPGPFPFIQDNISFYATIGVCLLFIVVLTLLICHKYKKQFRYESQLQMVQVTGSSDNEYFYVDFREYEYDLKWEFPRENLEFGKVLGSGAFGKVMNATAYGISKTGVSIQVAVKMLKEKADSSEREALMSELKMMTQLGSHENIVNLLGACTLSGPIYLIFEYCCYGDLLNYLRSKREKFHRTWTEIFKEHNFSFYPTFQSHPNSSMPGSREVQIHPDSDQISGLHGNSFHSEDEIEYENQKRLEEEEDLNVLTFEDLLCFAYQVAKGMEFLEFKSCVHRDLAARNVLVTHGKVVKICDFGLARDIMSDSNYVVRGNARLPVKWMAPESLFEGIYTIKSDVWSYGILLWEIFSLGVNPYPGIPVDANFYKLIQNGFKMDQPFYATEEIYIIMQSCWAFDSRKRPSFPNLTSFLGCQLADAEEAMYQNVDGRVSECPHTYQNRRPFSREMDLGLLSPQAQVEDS
# [3] = Lipophilicity, log D of the compound at pH 7.4; format: physicochemical; conditions: buffer
# [4] = biological target: T3, Tyrosine-protein kinase receptor TYRO3 (Homo sapiens, UniProt Q06418); test: Inhibition of FLAG-tagged Tyro3 (unknown origin) transfected in Cos-7 cells assessed as phosphorylation level incubated for 1 hr by ELISA; format: cell-based
# T3 sequence (Q06418 whole entry): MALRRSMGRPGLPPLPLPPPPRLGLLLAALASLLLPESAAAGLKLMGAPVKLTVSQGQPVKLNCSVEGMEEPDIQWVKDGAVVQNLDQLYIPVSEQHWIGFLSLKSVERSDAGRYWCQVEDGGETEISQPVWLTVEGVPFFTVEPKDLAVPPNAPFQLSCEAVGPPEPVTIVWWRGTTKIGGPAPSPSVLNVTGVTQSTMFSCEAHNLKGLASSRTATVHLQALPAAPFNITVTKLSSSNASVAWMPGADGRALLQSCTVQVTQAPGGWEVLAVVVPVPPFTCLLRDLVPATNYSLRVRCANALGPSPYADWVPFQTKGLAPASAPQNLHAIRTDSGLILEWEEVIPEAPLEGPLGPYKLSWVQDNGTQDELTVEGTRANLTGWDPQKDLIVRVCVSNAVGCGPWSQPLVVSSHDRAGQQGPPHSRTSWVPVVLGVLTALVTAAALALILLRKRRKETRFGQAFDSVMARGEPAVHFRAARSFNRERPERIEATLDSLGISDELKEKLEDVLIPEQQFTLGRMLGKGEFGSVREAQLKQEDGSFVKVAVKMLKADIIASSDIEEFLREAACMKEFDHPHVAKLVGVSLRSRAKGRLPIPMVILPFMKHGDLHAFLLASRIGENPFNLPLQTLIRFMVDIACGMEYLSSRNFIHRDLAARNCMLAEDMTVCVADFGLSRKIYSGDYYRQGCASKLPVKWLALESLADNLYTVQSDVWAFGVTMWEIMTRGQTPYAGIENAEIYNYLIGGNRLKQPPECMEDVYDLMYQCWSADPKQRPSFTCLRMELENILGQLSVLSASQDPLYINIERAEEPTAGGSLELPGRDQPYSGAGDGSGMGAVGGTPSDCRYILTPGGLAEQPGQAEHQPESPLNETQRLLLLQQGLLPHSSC
# [5] = Induction efferocytosis in human PBMC assessed as CD14-positive monocytes
IC50 [1],IC50 [2],logD [3],IC50 [4],pIC50 [5],Compound
0.398 µM,20 µM,3.7,> 31.6 µM,6.8,Cc1cc(-c2c(C)nn(C)c2C)ccc1-c1nnc(N(C)Cc2ccc3nccn3c2)o1
0.1 µM,> 31.6 µM,2.9,> 31.6 µM,7.6,Cc1cc(-c2c(C)nn(C)c2C)cnc1-c1nnc(N(C)Cc2ccc3ncc(-c4ccc(CN(C)C)cc4)n3c2)o1
6.31 µM,> 31.6 µM,2.8,> 31.6 µM,6,Cc1cc(-c2c(C)nn(C)c2C)cnc1-c1nnc(N(C)Cc2ccc3nccn3c2)o1
